Results as given in patent US20150017673A1, “COMPOSITIONS AND METHODS FOR DRUG-SENSITIZATION OR INHIBITION OF A CANCER CELL” (priority 2012, published 2015).
pIC50: −log10 of the molar value. Like-named read-outs stand apart in the source and are kept apart here. Blank lines part the entries; values can stand above or below the molecule they belong to.

Key:
lymphoma cell line G3 = assay: Cell growth assay (resazurin fluorescence) on CHOP-resistant G3 NHL cells; format: cell-based, human; conditions: for Magnitude of potentiation in combination with doxorubicin: G3, lymphoma B cells; for pIC50: read-out: IC50
Experimental: (§1) Compositions were tested on CHOP-resistant G3 NHL cells that had been cultivated in RPMI medium for five days. Prior to assay, the cells were counted by haemocytometer and cell concentration standardized to 625,000 cells/ml. Test drugs were solubilized in 100% DMSO and then diluted to final assay concentration with 0.1M phosphate buffered saline (PBS) and a final DMSO concentration of 0.5%. Cells were added to assay plates containing the test drugs (rifabutin+148 ng/ml, 74 ng/ml, 37 ng/ml, or 0 ng/ml doxorubicin) and allowed to incubate for 96 hours at 37° C. and 5% CO2. The metabolic dye rezasurin was added to the wells of the assay plate at a final concentration of 20 μg/ml and the plates were incubated for an additional 24 hours. The plates were then read in a BMG Polarstar plate reader at wavelength (573-605) and the data plotted as OD versus increasing dilutions (i.e. decreasing total amounts) of rifabutin derivative concentration.

[1] = test system: multi-drug-resistant breast cancer cell line MDA-MB-231; assay: Cell growth assay on MDA-MB-231 cells; format: cell-based; conditions: for Magnitude of potentiation in combination with doxorubicin: MDA-MB-231, breast carcinoma
Experimental: as §1
(§2) In these experiments, the following cell lines were used: CHOP-resistant NHL cell line G3, CHOP-sensitive NHL cell line CRL2631, the multi-drug resistant sarcoma cell line MES-SA-Dx5; multi-drug-resistant breast cancer cell line MDA-MB-231, multi-drug resistant ovarian carcinoma cell line SK-OV3, multi-drug resistant ovarian cancer cell line NCI/ADR-RES, drug-sensitive ovarian cancer cell line OVCAR-5, and multi-drug resistant ovarian cancer cell line OVCAR-3.
(§3) Additional cell lines used include: ovarian cancer OVCAR-8, T lymphoblastoid leukemia MOLT-4, dexamethasone-resistant multiple myeloma MM.1R, myeloid leukemia cells HL-60, osteosarcoma cells U-2 OS, and myeloma RPMI 8226.

[2] = test system: multi-drug resistant ovarian carcinoma cell line SK-OV3; assay: Cell growth assay on SK-OV3 cells; format: cell-based, human; conditions: SK-OV3, ovarian carcinoma
Experimental: as §1
as §2, with “OVCAR-3. […]” for “OVCAR-3.”

[3] = test system: multi-drug resistant ovarian cancer cell line OVCAR-3; assay: Cell growth assay on OVCAR-3 cells; format: cell-based; conditions: OVCAR-3, ovarian carcinoma
Experimental: as §1
as §2, with “OVCAR-3. […]” for “OVCAR-3.”

ROS in G3 lymphoma cells = assay: Intracellular ROS (CellROX, flow cytometry) in G3 cells; format: cell-based, human; conditions: 10 uM, FIG. 40
Experimental: Cells were then stained with the fluorescent ROS indicator, CellROX, and subjected to flow cytometry to quantitate total intracellular ROS.
The electron transport chain (ETC) is known to be a primary generator of ROS in the cell. Most of the ROS is generated by Complexes I and III of the ETC Inhibition of Complex I results in electrons piling up and leaking to react with oxygen to produce ROS.
All samples were analyzed at the same time in flow cytometry.

[4] = test system: multi-drug resistant ovarian cancer cell line NCI/ADR-RES; assay: Cell growth assay on NCI/ADR-RES cells; format: cell-based; conditions: NCI/ADR-RES, ovarian carcinoma
Experimental: as §1, §2, §3

[5] = analog alone, lymphoma cell line G3
[6] = with 1 μM doxorubicin, lymphoma cell line G3, read-out: IC50 (μM) with doxorubicin (1 μM)

Molecule: COC1C=COC2(C)Oc3c(C)c(O)c4c(c3C2=N)C2=NC3(CCN(C(=O)NCC(C)C)CC3)NC2=C(NC(=O)C(C)=CC=CC(C)C(O)C(C)C(O)C(C)C(OC(C)=O)C1C)C4=O (stereo not shown) [RTI-182, 11-deoxy-11-imino-4-deoxy-3,4[2-spiro-[1-(isobutylaminocarbonyl)-piperidin-4-yl]]-(1H)-imidazo-(2,5-dihydro)rifamycin S]
Magnitude of potentiation in combination with doxorubicin (lymphoma cell line G3): + (potentiation between 1.2 to 2.0 fold increase) | pIC50 (lymphoma cell line G3; [5]): 4.21 | Fold increase in potency over DOX alone (lymphoma cell line G3; lymphoma cell line G3): 2.0 fold | IC50 (lymphoma cell line G3; [6]): 1.2 µM | Magnitude of potentiation in combination with doxorubicin [1]: ++ (potentiation between 2.1 to 5 fold increase) | Magnitude of potentiation in combination with doxorubicin [2]: ++ (potentiation between 2.1 to 5 fold increase) | Magnitude of potentiation in combination with doxorubicin [3]: + (potentiation between 1.2 to 2.0 fold increase)

Molecule: COC1C=COC2(C)Oc3c(C)c(O)c4c(c3C2=O)C2=NC3(CCN(C(=O)NCC(C)C)CC3)NC2=C(NC(=O)C(C)=CC=CC(C)C(O)C(C)C(O)C(C)C(OC(C)=O)C1C)C4=O (stereo not shown) [RTI-102, 4-deoxy-3,4[2-spiro-[1-(isobutylaminocarbonyl)-piperidin-4-yl]]-(1H)-imidazo-(2,5-dihydro)rifamycin S]
Magnitude of potentiation in combination with doxorubicin (lymphoma cell line G3): ++ (potentiation between 2.1 to 5 fold increase) | pIC50 (lymphoma cell line G3; [5]): < 4.19 | Fold increase in potency over DOX alone (lymphoma cell line G3; lymphoma cell line G3): 2.5 fold | IC50 (lymphoma cell line G3; [6]): 0.95 µM | Magnitude of potentiation in combination with doxorubicin [2]: +++ (potentiation greater than 5 fold increase)

pIC50 (lymphoma cell line G3; Homo sapiens, therapeutic drug alone, G3): 5.10 | IC50 (lymphoma cell line G3; Homo sapiens, therapeutic drug with Rifabutin, G3, read-out: IC50 (μM) with Rifabutin): 1 µM
Molecule: CC[C@]1(O)C[C@@H]2CN(CCc3c([nH]c4ccccc34)[C@@](C(=O)OC)(c3cc4c(cc3OC)N(C)[C@H]3[C@@](O)(C(=O)OC)[C@H](OC(C)=O)[C@]5(CC)C=CCN6CC[C@]43[C@@H]65)C2)C1 [Vinblastine, vinblastine]
Fold increase in potency (lymphoma cell line G3; with vs without Rifabutin, G3): 8.0 fold

Molecule: COC1C=COC2(C)Oc3c(C)c(O)c4c(c3C2=N)C2=NC3(CCN(CCN5CCOCC5)CC3)NC2=C(NC(=O)C(C)=CC=CC(C)C(O)C(C)C(O)C(C)C(OC(C)=O)C1C)C4=O (stereo not shown) [RTI-53, 11-deoxy-11-imino-4-deoxy-3,4[2-spiro-[1-(2-morpholinoethyl)-piperidin-4-yl]]-(1H)-imidazo-(2,5-dihydro)rifamycin S]
pIC50 (lymphoma cell line G3; [5]): < 4.19 | Fold increase in potency over DOX alone (lymphoma cell line G3; lymphoma cell line G3): 0.2 fold | IC50 (lymphoma cell line G3; [6]): 11.8 µM | Magnitude of potentiation in combination with doxorubicin [2]: + (potentiation between 1.2 to 2.0 fold increase) | Magnitude of potentiation in combination with doxorubicin [3]: + (potentiation between 1.2 to 2.0 fold increase)

Molecule: C=C(C)[C@H]1Cc2c(ccc3c2O[C@@H]2COc4cc(OC)c(OC)cc4[C@@H]2C3=O)O1 [Rotenone, rotenone]
ROS levels (ROS in G3 lymphoma cells): induced ROS

Molecule: CC(=O)OCOC(=O)CN(CC(=O)OCOC(C)=O)c1ccccc1OCCOc1ccccc1N(CC(=O)OCOC(C)=O)CC(=O)OCOC(C)=O [BAPTA-AM]
ROS levels (ROS in G3 lymphoma cells): induced ROS

pIC50 ([1]; Homo sapiens, therapeutic drug alone, MDA-MB-231, read-out: IC50): < 4.49 | IC50 ([1]; Homo sapiens, therapeutic drug with Rifabutin, MDA-MB-231, read-out: IC50 (μM) with Rifabutin): 4.83 µM
Molecule: Nc1ccn([C@@H]2O[C@H](CO)[C@@H](O)C2(F)F)c(=O)n1 [Gemcitabine, gemcitabine]
Fold increase in potency ([1]; with vs without Rifabutin, MDA-MB-231): >6.6 fold

Molecule: COC1C=COC2(C)Oc3c(C)c(O)c4c(c3C2N)C2=NC3(CCN(CC(C)C)CC3)NC2=C(NC(=O)C(C)=CC=CC(C)C(O)C(C)C(O)C(C)C(OC(C)=O)C1C)C4=O (stereo not shown) [RTI-181, 11-deoxy-11-amino-4-deoxy-3,4[2-spiro-[1-(2-methylpropyl)-piperidin-4-yl]]-(1H)-imidazo-(2,5-dihydro)rifamycin S]
Magnitude of potentiation in combination with doxorubicin (lymphoma cell line G3): +++ (potentiation greater than 5 fold increase) | pIC50 (lymphoma cell line G3; [5]): 4.28 | Fold increase in potency over DOX alone (lymphoma cell line G3; lymphoma cell line G3): 5.5 fold | IC50 (lymphoma cell line G3; [6]): 0.43 µM | Magnitude of potentiation in combination with doxorubicin [2]: +++ (potentiation greater than 5 fold increase) | Magnitude of potentiation in combination with doxorubicin [3]: + (potentiation between 1.2 to 2.0 fold increase)

Molecule: COC1C=COC2(C)Oc3c(C)c(O)c4c(c3C2N)C2=NC3(CCN(C(=O)NCC(C)C)CC3)NC2=C(NC(=O)C(C)=CC=CC(C)C(O)C(C)C(O)C(C)C(OC(C)=O)C1C)C4=O (stereo not shown) [RTI-183, 11-deoxy-11-amino-4-deoxy-3,4[2-spiro-[1-(isobutylaminocarbonyl)-piperidin-4-yl]]-(1H)-imidazo-(2,5-dihydro)rifamycin S]
pIC50 (lymphoma cell line G3; [5]): < 4.19 | Fold increase in potency over DOX alone (lymphoma cell line G3; lymphoma cell line G3): 0.5 fold | IC50 (lymphoma cell line G3; [6]): 5.19 µM | Magnitude of potentiation in combination with doxorubicin [3]: + (potentiation between 1.2 to 2.0 fold increase)

Molecule: COC1C=COC2(C)Oc3c(C)c(O)c4c(c3C2O)C2=NC3(CCN(CC(C)C)CC3)NC2=C(NC(=O)C(C)=CC=CC(C)C(O)C(C)C(O)C(C)C(OC(C)=O)C1C)C4=O (stereo not shown) [RTI-174, 11-deoxy-11-hydroxy-4-deoxy-3,4[2-spiro-[1-(2-methylpropyl)-piperidin-4-yl]]-(1H)-imidazo-(2,5-dihydro)rifamycin S]
Magnitude of potentiation in combination with doxorubicin (lymphoma cell line G3): ++ (potentiation between 2.1 to 5 fold increase) | pIC50 (lymphoma cell line G3; [5]): 4.29 | Fold increase in potency over DOX alone (lymphoma cell line G3; lymphoma cell line G3): 3.7 fold | IC50 (lymphoma cell line G3; [6]): 0.64 µM | Magnitude of potentiation in combination with doxorubicin [2]: + (potentiation between 1.2 to 2.0 fold increase) | Magnitude of potentiation in combination with doxorubicin [3]: + (potentiation between 1.2 to 2.0 fold increase) | Magnitude of potentiation in combination with doxorubicin [4]: + (potentiation between 1.2 to 2.0 fold increase)

Molecule: O=c1[nH]c2ccccc2n1C1CCN(Cc2ccc(-c3nc4cc5[nH]cnc5cc4nc3-c3ccccc3)cc2)CC1 [Akt Inhibitor VIII]
CHOP resistance (lymphoma cell line G3; G3 cells, varying amounts of Akt Inhibitor VIII): dose-dependent reversal of CHOP resistance

Molecule: 11-deoxy-11-imino-4-deoxy-3,4[2-spiro-[1- (ethylaminocarbonyl)-piperidin-4-yl]]-(1H)-imidazo-(2,5- dihydro)rifamycin S [RTI-82]
pIC50 (lymphoma cell line G3; [5]): < 4.19 | Fold increase in potency over DOX alone (lymphoma cell line G3; lymphoma cell line G3): 0.7 fold | IC50 (lymphoma cell line G3; [6]): 3.5 µM | Magnitude of potentiation in combination with doxorubicin [1]: +++ (potentiation greater than 5 fold increase)

Molecule: 4-deoxy-3,4[2-spiro-[1-(n-propyloxycarbonyl)-piperidin-4-yl]]- (1H)-imidazo-(2,5-dihydro)rifamycin S [RTI-78]
pIC50 (lymphoma cell line G3; [5]): 4.24 | Fold increase in potency over DOX alone (lymphoma cell line G3; lymphoma cell line G3): 29.5 fold | IC50 (lymphoma cell line G3; [6]): 0.08 µM

Molecule: 11-deoxy-11-imino-4-deoxy-3,4[2-spiro-[1-(2-methoxyethyl)- piperidin-4-yl]]-(1H)-imidazo-(2,5-dihydro)rifamycin S [RTI-51]
pIC50 (lymphoma cell line G3; [5]): < 4.19 | Fold increase in potency over DOX alone (lymphoma cell line G3; lymphoma cell line G3): 0.7 fold | IC50 (lymphoma cell line G3; [6]): 3.3 µM | Magnitude of potentiation in combination with doxorubicin [2]: + (potentiation between 1.2 to 2.0 fold increase) | Magnitude of potentiation in combination with doxorubicin [3]: + (potentiation between 1.2 to 2.0 fold increase)
